The values below come from publication PMC11362529, “Exploring the neuroprotective potential of Nrf2-pathway activators against annonacin toxicity” (Scientific Reports, 2024).

In one data set the test system is HO-1. In words: HO-1 protein levels by ELISA. It is filed as cell-based, human. Particulars: 48 h. As to the method: Protein expression levels of HO-1 were determined by ELISA (enzyme-linked immunosorbent assay) using a commercial kit (#ab207621, Abcam) according to the manufacturer's instructions. For this purpose, cells were seeded onto PLO/FN coated 6-well microplates. After the pharmacological treatments, cells were washed with warm HBSS, trypsinized and pelleted as before, and finally lysed in 100 µl cell extraction buffer PTR provided by the kit. Sample concentration was measured by BCA, as previously mentioned, and 1 µg of total protein extract was loaded into the respective wells. All samples were run in duplicates and the absorbances were measured on a FLUOstar® Omega plate reader at λ 450 nm. For data analysis, we used the MARS software (BMG LabTech). First, we calculated the means of the absorbances for each condition. The mean value of the blank control (i.e., a condition with only sample diluent buffer) was subtracted from the mean values of all standard and experimental conditions. A 4PL-curve fit was plotted on Prism 9 software (GraphPad Software, San Diego, CA, USA), using the blank-corrected mean values of standard conditions. The obtained curve was used to determine the HO-1 protein concentration, followed by multiplication by the dilution factor to obtain the concentration of the target-protein in each sample.
Background: An ELISA detects its analyte on a solid surface through an enzyme-linked reagent.

The next data set has as its system LUHMES cells. Nature of the data set: Annonacin titration, calcein viability assay. It is filed as cell-based, human. The note with it: 20 nM annonacin, 48 h, glucose-reduced medium. As to the method: Commercial annonacin (Cayman Chemical, Michigan, MI, USA) was diluted in DMSO and stored in small aliquots of 100 µM stock solution at -80 °C. For annonacin titration, LUHMES cells were seeded onto a 48-well microplate and intoxicated on day 6 of differentiation with different concentrations of annonacin, over a period of 48 h, in glucose-reduced differentiation medium of DMEM without glucose (Gibco), supplemented with 2.4 mM glucose, 1% N-2 supplement, 1 µg/ml tetracycline, […] GDNF, and 490 µg/ml dbcAMP to mimic the physiological concentration of glucose in the human brain[44],[45]. Each experimental condition was run in triplicates. Cell viability was measured by calcein viability assay, as detailed below. […]
The calcein AM green dye (Thermo Fisher Scientific) was diluted in DMSO to obtain a 1 mM stock solution. […] Cells were lysed in a 200 µl volume of 1% Triton™ X-100 in PBS (phosphate buffered saline) and the lysate transferred to a 96‐well black plate for the readout. The fluorescence signal was measured on a FLUOstar® Omega plate reader (BMG LabTech, Ortenberg, Germany) at λ Ex/Em = 485/530 nm and data was analyzed with the MARS data analysis software (BMG LabTech). For background correction, we subtracted the background control signal from the measured values of all experimental conditions. […]

Regarding `Cn1c(Nc2nc3ccc(C(F)(F)F)cc3s2)nc2cc(C(=O)NCCOCCO)ccc21` [HPP-D], the HO-1 protein expression result in the data set on HO-1 (absence of annonacin) and in the data set with HO-1 (presence of 20 nM annonacin) was “significantly increased the HO-1 protein expression” in each case.
Turning to `CCCCCCCCCCCC[C@@H](O)[C@H]1CC[C@H]([C@H](O)CCCC[C@H](O)CCCCC[C@@H](O)CC2=CC(C)OC2=O)O1` (stereo partly drawn) [annonacin], in the data set with LUHMES cells, the cell viability entry is given as “approximately 50 % of the untreated condition”.
